Article PMC8211653, “Polθ inhibitors elicit BRCA-gene synthetic lethality and target PARP inhibitor resistance” (Nature Communications, 2021)
pIC50: −log10 of the molar value.

Experiments:
Polγ = target: T1, Polγ (Homo sapiens, UniProt P54098); assay: biochemical; parameters: inhibition of human DNA polymerases, selectivity assay
T1 construct: gene POLG
T1 sequence (P54098 1-1239): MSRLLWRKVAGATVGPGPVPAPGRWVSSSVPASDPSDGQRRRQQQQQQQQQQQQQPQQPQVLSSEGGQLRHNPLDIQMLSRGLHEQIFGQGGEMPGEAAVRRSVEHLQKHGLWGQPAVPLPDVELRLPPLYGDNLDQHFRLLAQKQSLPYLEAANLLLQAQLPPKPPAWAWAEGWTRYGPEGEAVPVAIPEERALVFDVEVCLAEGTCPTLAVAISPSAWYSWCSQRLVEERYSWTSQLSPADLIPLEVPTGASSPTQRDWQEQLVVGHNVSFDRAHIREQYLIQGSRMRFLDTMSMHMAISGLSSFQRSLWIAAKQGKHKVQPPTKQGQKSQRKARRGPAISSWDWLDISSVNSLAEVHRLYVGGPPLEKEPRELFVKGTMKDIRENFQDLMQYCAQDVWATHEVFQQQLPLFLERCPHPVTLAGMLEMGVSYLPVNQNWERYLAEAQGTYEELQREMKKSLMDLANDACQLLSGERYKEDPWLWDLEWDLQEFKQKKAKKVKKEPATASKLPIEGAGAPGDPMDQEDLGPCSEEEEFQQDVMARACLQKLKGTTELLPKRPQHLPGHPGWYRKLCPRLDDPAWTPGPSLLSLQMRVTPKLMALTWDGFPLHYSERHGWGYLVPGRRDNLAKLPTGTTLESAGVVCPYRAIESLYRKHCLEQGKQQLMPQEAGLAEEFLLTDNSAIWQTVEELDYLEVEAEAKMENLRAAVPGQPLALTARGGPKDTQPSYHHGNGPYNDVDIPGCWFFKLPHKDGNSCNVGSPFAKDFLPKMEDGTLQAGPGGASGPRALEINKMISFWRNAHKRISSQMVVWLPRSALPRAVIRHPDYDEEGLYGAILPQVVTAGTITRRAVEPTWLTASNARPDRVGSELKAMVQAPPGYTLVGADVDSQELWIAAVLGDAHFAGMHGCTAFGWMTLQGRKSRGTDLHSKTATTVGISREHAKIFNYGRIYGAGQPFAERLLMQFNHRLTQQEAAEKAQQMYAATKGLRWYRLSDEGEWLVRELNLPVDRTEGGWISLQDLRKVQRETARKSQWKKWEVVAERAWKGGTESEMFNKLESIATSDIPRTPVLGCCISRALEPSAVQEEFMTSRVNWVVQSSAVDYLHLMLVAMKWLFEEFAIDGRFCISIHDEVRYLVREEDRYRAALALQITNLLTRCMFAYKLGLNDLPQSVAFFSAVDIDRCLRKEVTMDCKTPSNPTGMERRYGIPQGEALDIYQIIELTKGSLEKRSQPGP

DNA polymerase Polθ = target: T2, DNA polymerase Polθ (Homo sapiens, UniProt O75417); assay: PicoGreen DNA primer extension assay with recombinant full-length enzyme; supported by DNA-dependent DSF stabilisation and mechanism-of-action kinetics; type: biochemical
T2 construct: gene POLQ; full-length (residues 2–2590)
T2 sequence (O75417 2-2590): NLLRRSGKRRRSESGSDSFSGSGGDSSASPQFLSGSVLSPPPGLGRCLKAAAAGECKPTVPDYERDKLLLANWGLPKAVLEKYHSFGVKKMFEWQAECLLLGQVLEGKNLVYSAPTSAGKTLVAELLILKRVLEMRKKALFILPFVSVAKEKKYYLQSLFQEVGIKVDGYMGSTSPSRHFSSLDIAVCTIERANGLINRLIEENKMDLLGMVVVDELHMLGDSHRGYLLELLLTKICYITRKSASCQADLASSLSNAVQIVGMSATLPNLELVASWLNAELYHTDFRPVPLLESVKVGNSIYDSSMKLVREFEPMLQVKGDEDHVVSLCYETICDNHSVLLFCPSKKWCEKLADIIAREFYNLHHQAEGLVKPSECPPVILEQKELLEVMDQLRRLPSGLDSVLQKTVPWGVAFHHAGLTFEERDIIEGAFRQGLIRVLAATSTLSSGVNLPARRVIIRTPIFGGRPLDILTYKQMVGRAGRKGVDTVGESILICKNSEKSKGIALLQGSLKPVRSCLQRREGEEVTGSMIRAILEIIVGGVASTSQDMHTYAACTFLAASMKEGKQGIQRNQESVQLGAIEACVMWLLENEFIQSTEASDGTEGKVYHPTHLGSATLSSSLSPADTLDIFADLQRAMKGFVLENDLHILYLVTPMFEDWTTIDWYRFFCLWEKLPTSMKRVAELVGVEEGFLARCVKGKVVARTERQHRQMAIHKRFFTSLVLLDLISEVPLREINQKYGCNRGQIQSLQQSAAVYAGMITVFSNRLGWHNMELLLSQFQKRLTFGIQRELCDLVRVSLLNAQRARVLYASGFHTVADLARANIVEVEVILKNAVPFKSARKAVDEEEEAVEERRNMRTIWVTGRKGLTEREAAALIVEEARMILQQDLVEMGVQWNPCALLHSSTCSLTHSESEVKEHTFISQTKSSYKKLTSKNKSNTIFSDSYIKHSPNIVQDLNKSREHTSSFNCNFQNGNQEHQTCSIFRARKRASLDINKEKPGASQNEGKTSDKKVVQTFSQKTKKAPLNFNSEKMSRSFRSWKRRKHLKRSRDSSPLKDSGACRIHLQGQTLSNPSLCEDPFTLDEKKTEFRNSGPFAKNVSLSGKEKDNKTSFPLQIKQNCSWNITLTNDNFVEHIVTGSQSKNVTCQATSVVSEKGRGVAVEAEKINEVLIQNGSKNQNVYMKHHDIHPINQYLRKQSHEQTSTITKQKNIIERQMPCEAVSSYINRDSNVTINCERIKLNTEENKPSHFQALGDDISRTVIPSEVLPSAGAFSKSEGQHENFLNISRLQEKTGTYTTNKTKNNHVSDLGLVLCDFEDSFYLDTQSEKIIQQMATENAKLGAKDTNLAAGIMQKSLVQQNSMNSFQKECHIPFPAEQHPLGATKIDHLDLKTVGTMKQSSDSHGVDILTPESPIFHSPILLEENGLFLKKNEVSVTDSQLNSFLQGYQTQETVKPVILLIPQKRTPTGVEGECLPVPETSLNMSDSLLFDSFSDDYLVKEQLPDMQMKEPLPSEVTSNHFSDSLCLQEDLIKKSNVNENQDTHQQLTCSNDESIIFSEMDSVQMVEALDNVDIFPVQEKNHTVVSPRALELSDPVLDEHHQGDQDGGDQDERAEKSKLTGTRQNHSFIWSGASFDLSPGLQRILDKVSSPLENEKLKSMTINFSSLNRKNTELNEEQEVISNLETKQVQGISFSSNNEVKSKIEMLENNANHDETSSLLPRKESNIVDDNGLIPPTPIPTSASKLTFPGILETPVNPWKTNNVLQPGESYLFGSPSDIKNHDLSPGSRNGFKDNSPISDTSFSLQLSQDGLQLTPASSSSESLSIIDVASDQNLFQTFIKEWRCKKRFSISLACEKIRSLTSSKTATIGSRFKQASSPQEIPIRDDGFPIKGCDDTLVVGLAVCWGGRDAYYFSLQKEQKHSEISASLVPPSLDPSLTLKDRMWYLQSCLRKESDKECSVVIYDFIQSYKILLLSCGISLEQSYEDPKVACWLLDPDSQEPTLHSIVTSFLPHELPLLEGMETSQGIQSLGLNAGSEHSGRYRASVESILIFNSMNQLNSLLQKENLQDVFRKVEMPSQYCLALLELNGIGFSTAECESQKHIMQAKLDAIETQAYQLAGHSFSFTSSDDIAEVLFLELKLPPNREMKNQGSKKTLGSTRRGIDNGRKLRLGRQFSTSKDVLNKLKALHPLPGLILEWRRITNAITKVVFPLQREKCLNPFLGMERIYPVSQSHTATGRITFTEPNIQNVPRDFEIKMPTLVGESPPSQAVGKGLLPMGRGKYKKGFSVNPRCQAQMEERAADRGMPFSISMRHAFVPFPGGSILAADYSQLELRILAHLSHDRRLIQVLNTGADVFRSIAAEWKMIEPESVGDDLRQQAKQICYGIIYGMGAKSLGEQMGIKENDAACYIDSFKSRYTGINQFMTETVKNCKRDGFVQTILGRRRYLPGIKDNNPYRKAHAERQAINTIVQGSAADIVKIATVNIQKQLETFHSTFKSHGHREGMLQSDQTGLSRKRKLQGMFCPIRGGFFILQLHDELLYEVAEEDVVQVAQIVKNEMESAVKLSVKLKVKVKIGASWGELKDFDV

Polη = target: T3, Polη (Homo sapiens, UniProt Q9Y253); assay: biochemical; parameters: inhibition of human DNA polymerases, selectivity assay
T3 construct: gene POLH
T3 sequence (Q9Y253 1-713): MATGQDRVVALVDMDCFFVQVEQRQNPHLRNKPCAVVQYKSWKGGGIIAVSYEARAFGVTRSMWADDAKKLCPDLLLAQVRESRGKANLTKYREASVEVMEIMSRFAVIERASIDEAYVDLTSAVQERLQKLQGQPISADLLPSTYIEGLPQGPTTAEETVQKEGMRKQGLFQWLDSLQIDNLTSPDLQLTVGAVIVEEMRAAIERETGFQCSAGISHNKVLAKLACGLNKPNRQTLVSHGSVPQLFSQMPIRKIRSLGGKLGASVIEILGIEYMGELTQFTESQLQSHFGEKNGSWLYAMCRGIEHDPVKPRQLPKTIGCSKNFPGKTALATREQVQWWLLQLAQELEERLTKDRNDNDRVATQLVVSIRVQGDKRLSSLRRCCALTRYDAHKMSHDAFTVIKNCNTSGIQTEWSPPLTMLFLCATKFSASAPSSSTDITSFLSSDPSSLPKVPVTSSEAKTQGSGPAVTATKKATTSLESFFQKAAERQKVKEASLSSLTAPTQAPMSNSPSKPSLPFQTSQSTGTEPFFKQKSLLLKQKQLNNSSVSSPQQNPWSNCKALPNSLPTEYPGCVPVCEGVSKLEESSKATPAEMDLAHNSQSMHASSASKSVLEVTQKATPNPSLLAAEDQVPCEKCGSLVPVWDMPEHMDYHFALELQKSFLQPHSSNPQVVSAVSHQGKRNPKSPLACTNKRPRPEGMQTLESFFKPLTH

Polν = target: T4, Polν (Homo sapiens, UniProt Q7Z5Q5); assay: biochemical; parameters: inhibition of human DNA polymerases, selectivity assay
T4 construct: gene POLN
T4 sequence (Q7Z5Q5 1-900): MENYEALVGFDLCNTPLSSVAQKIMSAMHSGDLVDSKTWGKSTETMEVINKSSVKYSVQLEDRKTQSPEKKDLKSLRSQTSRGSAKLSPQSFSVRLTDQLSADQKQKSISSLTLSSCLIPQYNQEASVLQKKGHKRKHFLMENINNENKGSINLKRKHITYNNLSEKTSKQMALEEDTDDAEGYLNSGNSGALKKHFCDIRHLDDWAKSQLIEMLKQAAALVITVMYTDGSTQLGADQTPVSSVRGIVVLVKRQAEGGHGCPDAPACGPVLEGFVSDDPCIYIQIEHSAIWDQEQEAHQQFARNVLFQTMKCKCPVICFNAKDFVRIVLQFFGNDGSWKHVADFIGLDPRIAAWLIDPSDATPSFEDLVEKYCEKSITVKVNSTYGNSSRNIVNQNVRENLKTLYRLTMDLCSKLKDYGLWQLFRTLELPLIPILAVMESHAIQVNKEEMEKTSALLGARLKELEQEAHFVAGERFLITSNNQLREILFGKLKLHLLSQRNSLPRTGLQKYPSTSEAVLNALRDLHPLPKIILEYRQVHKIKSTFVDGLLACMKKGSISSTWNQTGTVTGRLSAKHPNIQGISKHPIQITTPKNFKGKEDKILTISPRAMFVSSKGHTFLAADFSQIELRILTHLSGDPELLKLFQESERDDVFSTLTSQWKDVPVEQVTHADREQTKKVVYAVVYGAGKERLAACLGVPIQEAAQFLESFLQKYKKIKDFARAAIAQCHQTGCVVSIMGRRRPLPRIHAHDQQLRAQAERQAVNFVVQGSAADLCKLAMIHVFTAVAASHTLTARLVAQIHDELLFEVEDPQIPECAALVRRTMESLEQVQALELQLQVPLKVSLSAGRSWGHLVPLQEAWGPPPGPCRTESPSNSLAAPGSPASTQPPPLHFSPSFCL

Polα = target: T5, Polα (Homo sapiens, UniProt P09884); assay: biochemical; parameters: inhibition of human DNA polymerases, selectivity assay
T5 construct: gene POLA1
T5 sequence (P09884 1-1462): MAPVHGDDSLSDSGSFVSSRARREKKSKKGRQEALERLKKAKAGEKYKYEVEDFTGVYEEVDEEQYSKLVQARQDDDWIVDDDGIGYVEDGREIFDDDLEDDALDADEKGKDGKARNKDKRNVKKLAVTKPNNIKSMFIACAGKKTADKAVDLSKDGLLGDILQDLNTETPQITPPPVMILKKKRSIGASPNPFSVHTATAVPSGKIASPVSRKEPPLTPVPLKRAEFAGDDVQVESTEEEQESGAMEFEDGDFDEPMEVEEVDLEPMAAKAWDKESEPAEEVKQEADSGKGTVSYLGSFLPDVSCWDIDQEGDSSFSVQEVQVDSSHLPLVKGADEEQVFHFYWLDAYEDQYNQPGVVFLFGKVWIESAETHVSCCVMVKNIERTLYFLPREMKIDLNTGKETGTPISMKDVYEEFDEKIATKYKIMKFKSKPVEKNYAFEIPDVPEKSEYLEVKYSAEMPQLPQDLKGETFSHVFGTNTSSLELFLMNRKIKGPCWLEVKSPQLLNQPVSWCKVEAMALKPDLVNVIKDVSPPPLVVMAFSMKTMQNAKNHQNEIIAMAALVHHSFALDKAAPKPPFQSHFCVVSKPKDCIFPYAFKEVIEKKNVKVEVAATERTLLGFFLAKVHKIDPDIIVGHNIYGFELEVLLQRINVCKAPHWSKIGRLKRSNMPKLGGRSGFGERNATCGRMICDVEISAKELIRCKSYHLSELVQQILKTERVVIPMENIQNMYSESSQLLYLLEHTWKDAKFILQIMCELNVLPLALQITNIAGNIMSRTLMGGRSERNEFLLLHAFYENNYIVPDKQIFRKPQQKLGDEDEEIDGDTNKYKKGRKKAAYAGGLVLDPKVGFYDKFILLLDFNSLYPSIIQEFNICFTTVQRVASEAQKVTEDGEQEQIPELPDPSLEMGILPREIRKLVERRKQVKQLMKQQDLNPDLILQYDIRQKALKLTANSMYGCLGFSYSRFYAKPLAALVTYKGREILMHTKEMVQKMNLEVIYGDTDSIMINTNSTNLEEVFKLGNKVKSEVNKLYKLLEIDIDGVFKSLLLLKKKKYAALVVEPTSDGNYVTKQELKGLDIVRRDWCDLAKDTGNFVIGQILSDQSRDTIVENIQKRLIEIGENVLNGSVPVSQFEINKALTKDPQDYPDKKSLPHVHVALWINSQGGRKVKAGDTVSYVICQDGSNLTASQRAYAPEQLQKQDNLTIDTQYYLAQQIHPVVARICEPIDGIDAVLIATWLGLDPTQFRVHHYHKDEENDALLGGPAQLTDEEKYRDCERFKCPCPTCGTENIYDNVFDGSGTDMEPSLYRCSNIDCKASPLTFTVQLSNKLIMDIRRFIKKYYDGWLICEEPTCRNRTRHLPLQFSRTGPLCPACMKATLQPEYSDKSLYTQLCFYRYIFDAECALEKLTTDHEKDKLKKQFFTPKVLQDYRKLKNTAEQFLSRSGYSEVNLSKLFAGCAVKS

SMILES: Cc1cccc(N(C)C(=O)[C@@H]2[C@H](O)CCN2c2nc(C)cc(C(F)(F)F)c2C#N)c1 [ART558]
- pIC50 (Polγ): < 4.00
- pIC50 (DNA polymerase Polθ): 8.10
- pIC50 (Polη): < 4.00
- pIC50 (Polν): < 4.00
- pIC50 (Polα): < 4.00
